This is an account of results in PMC8550792, “Evolution of kinase polypharmacology across HSP90 drug discovery” (Cell Chemical Biology, 2021).

Common to all, as to experiment: biochemical
What all share (assay type): biochemical

Experiment [1] concerns the target T1, 382 unique human kinases (Homo sapiens, UniProt P00533, L747S).
T1 construct: purchased Reaction Biology (HotSpot contract assay)
To be noted: kinase EGFR (L747S), compound 10 uM; for remaining activity at 10 µM: read-out: % Enzyme Activity (relative to DMSO controls).

Experiment [2] addresses T2, 382 unique human kinases (Homo sapiens, UniProt P48730).
T2 construct: purchased Reaction Biology (HotSpot contract assay)
To be noted: CK1d, 10 uM; for remaining activity at 10 µM: read-out: % Enzyme Activity (relative to DMSO controls).

The target of experiment [3] is T3, 382 unique human kinases (Homo sapiens, UniProt P50613).
T3 construct: purchased Reaction Biology (HotSpot contract assay)
T3 sequence (P50613 whole entry): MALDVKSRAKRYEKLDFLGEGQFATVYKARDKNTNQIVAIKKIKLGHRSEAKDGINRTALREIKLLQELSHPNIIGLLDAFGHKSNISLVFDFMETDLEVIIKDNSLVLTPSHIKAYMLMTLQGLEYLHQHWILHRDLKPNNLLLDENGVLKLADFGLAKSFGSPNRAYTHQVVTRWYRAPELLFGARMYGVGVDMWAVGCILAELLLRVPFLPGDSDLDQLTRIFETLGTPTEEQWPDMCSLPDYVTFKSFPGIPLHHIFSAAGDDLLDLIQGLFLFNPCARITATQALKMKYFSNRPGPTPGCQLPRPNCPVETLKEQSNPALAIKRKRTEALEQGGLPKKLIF
To be noted: kinase CDK7/cyclin H, compound 10 uM; for remaining activity at 10 µM: read-out: % Enzyme Activity (relative to DMSO controls).

Experiment [4] addresses T4, 382 unique human kinases (Homo sapiens, UniProt Q00536).
T4 construct: purchased Reaction Biology (HotSpot contract assay)
To be noted: CDK16/cyclin Y (PCTAIRE), 10 uM; for remaining activity at 10 µM: read-out: % Enzyme Activity (relative to DMSO controls).

Experiment [5] deals with T5, 382 unique human kinases (Homo sapiens, UniProt Q15303).
T5 construct: purchased Reaction Biology (HotSpot contract assay)
To be noted: kinase ERBB4/HER4, compound 10 uM; for remaining activity at 10 µM: read-out: % Enzyme Activity (relative to DMSO controls).

In experiment [6] the target is T6, 382 unique human kinases (Homo sapiens, UniProt Q8IU85).
T6 construct: purchased Reaction Biology (HotSpot contract assay)
To be noted: kinase CAMK1d, compound 10 uM; for remaining activity at 10 µM: read-out: % Enzyme Activity (relative to DMSO controls).

In experiment [7] the target is T7, 382 unique human kinases (Homo sapiens, UniProt Q8TD08).
T7 construct: purchased Reaction Biology (HotSpot contract assay)
T7 sequence (Q8TD08 1-544): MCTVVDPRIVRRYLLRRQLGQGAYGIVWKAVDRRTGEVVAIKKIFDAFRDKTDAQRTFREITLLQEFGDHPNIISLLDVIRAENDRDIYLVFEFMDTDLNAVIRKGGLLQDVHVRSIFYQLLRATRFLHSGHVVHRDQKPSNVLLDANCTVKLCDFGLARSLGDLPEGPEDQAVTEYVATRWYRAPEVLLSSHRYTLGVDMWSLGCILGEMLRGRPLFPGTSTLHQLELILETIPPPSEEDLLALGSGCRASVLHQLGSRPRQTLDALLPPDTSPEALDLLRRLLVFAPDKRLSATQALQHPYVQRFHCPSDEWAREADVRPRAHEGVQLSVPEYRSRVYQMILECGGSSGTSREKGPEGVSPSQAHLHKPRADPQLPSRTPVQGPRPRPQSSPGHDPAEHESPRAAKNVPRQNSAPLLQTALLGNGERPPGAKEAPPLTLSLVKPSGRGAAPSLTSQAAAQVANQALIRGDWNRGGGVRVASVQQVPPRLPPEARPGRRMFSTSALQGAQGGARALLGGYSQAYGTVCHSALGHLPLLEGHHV
To be noted: kinase ERK7/MAPK15, compound 10 uM; for remaining activity at 10 µM: read-out: % Enzyme Activity (relative to DMSO controls).

For experiment [8], the target named is T8, 382 unique human kinases (Homo sapiens, UniProt Q9UPE1).
T8 construct: purchased Reaction Biology (HotSpot contract assay)
To be noted: MSSK1/STK23, 10 uM; for remaining activity at 10 µM: read-out: % Enzyme Activity (relative to DMSO controls).

Experiment [9] addresses T9, 382 unique human kinases (Homo sapiens, UniProt O60285).
T9 construct: purchased Reaction Biology (HotSpot contract assay)
T9 sequence (O60285 1-661): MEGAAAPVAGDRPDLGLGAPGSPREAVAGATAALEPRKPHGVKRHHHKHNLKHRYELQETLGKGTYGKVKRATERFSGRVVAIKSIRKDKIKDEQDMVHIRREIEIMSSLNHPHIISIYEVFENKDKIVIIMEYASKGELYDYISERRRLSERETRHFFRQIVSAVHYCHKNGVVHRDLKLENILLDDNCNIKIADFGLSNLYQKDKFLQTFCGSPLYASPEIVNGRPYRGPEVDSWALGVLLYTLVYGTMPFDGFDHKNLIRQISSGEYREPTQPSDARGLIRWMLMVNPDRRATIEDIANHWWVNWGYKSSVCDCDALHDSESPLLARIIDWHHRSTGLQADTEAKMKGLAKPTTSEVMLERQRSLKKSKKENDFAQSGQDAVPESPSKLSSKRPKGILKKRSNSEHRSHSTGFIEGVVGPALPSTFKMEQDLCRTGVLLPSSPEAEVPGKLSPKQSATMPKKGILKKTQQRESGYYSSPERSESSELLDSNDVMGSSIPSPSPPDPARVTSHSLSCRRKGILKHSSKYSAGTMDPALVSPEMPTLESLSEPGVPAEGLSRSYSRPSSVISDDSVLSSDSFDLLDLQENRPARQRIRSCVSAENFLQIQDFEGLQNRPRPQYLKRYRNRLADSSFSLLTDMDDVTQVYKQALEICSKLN
To be noted: ARK5/NUAK1, 10 uM; for remaining activity at 10 µM: read-out: % Enzyme Activity (relative to DMSO controls).

The target of experiment [10] is T10, 382 unique human kinases (Homo sapiens, UniProt P00533, DEL746-750/T790M).
T10 construct: purchased Reaction Biology (HotSpot contract assay)
To be noted: EGFR (d746-750/T790M), 10 uM; for remaining activity at 10 µM: read-out: % Enzyme Activity (relative to DMSO controls).

The target of experiment [11] is T11, 382 unique human kinases (Homo sapiens, UniProt P51451).
T11 construct: purchased Reaction Biology (HotSpot contract assay)
T11 sequence (P51451 whole entry): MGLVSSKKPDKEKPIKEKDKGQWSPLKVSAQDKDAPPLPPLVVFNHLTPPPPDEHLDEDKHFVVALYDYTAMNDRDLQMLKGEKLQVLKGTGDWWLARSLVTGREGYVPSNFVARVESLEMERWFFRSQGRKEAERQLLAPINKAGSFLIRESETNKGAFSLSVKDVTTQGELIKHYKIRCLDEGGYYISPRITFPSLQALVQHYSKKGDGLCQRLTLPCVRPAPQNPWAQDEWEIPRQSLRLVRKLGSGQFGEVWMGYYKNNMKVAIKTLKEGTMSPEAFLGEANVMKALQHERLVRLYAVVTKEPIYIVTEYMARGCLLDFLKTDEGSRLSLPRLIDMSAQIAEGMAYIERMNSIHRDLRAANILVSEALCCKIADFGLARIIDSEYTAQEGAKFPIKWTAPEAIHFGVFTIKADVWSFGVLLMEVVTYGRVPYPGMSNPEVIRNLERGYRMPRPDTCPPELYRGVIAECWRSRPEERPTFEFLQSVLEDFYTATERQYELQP
To be noted: BLK, [ATP] 10 µM.

Experiment [12] addresses T12, 382 unique human kinases (Homo sapiens, UniProt Q14680).
T12 construct: purchased Reaction Biology (HotSpot contract assay)
To be noted: MELK, [ATP] 50 µM, compound 10 uM; for remaining activity at 10 µM: read-out: % Enzyme Activity (relative to DMSO controls).

Experiment [13] has as its target T13, 382 unique human kinases (Homo sapiens, UniProt Q15120).
T13 construct: purchased Reaction Biology (HotSpot contract assay)
To be noted: PDK3/PDHK3, [ATP] 30 µM, compound 10 uM; for remaining activity at 10 µM: read-out: % Enzyme Activity (relative to DMSO controls).

Experiment [14] concerns the target T14, 382 unique human kinases (Homo sapiens, UniProt Q16539, T106M).
T14 construct: purchased Reaction Biology (HotSpot contract assay)
To be noted: P38a (T106M), 10 uM; for remaining activity at 10 µM: read-out: % Enzyme Activity (relative to DMSO controls).

The target of experiment [15] is T15, 382 unique human kinases (Homo sapiens, UniProt Q5TCX8).
T15 construct: purchased Reaction Biology (HotSpot contract assay)
T15 sequence (Q5TCX8 whole entry): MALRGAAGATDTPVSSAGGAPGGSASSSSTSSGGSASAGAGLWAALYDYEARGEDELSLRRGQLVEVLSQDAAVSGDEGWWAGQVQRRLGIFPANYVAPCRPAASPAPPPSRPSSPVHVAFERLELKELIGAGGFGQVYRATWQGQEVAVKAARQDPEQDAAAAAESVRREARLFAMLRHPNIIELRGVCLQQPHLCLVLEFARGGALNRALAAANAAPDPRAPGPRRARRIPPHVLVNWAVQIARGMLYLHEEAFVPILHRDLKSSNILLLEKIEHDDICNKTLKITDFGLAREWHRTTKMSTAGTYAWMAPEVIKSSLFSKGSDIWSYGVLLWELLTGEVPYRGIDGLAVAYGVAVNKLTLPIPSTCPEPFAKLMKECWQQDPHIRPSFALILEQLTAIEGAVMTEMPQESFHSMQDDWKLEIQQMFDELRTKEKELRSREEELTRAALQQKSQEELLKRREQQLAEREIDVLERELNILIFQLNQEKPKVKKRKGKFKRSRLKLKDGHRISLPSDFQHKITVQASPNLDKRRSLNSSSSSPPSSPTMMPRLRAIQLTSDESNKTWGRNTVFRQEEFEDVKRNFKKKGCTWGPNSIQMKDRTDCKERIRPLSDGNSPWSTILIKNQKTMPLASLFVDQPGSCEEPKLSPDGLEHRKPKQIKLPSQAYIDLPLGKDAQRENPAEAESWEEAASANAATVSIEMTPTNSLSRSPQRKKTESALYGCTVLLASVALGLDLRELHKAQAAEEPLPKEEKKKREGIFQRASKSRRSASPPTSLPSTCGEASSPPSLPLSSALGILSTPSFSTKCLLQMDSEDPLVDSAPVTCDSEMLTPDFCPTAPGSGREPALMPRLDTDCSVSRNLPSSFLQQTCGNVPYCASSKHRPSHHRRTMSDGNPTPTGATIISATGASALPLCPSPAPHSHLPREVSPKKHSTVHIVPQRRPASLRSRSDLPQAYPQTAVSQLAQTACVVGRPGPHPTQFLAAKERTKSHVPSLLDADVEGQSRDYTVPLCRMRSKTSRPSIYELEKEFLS
To be noted: MLK4, 10 uM; for remaining activity at 10 µM: read-out: % Enzyme Activity (relative to DMSO controls).

In experiment [16] the target is T16, 382 unique human kinases (Homo sapiens, UniProt Q9HCP0).
T16 construct: purchased Reaction Biology (HotSpot contract assay)
T16 sequence (Q9HCP0 whole entry): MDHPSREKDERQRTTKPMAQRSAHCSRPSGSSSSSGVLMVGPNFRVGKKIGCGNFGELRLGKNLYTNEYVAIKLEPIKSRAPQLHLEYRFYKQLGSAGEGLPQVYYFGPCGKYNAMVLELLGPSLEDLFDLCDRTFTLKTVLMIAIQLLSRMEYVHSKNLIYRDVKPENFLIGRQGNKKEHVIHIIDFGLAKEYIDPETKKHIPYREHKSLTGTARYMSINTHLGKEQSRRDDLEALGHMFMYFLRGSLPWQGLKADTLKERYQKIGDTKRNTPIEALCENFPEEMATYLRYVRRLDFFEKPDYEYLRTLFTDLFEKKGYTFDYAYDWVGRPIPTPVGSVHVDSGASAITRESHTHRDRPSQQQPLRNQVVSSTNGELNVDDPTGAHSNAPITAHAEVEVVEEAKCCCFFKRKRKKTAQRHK
To be noted: CK1g1, 10 uM; for remaining activity at 10 µM: read-out: % Enzyme Activity (relative to DMSO controls).

Experiment [17] concerns the target T17, 382 unique human kinases (Homo sapiens, UniProt Q9NQU5).
T17 construct: purchased Reaction Biology (HotSpot contract assay)
To be noted: PAK6, 10 uM; for remaining activity at 10 µM: read-out: % Enzyme Activity (relative to DMSO controls).

For experiment [18], the target named is T18, 382 unique human kinases (Homo sapiens, UniProt Q9UM73, L1152R).
T18 construct: purchased Reaction Biology (HotSpot contract assay)
To be noted: ALK (L1152R), [ATP] 30 µM, compound 10 uM; for remaining activity at 10 µM: read-out: % Enzyme Activity (relative to DMSO controls).

Experiment [19] has as its target T19, 382 unique human kinases (Homo sapiens, UniProt Q9Y572).
T19 construct: purchased Reaction Biology (HotSpot contract assay)
To be noted: RIPK3, [ATP] 2.5 µM, compound 10 uM; for remaining activity at 10 µM: read-out: % Enzyme Activity (relative to DMSO controls).

The mark [20] stands for this setting: compound 10 uM, read-out: % Enzyme Activity (relative to DMSO controls).

T12 sequence (Q14680 whole entry): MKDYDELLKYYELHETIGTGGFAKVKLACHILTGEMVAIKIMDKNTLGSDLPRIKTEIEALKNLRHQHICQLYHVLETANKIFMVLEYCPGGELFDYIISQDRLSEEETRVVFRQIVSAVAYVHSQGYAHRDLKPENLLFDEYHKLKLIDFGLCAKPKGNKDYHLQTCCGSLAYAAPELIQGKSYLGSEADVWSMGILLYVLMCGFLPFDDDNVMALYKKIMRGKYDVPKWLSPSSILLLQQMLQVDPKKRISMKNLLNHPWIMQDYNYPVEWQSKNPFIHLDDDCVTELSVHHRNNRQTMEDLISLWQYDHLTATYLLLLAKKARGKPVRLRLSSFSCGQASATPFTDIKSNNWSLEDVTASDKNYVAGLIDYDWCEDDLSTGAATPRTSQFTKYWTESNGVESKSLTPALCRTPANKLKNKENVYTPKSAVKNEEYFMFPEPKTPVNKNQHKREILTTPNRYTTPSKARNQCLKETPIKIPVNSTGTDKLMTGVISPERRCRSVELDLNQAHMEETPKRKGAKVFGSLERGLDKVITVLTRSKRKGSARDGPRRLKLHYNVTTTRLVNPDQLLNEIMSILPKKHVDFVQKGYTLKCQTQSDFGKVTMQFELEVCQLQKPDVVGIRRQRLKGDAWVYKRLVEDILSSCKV
T19 sequence (Q9Y572 whole entry): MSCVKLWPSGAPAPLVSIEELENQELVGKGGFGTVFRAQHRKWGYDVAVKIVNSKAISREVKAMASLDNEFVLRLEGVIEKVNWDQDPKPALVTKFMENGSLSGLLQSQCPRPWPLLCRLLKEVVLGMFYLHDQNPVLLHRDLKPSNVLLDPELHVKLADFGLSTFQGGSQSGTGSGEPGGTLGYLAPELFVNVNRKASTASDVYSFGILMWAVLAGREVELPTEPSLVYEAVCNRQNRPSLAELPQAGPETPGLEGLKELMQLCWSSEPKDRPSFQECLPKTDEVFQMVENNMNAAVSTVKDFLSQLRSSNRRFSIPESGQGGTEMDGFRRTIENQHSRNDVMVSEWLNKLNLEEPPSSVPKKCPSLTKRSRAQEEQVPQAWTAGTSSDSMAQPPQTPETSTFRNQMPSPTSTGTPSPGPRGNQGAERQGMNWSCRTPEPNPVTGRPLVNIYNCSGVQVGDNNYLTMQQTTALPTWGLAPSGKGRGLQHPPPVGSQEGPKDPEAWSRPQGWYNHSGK
T13 sequence (Q15120 whole entry): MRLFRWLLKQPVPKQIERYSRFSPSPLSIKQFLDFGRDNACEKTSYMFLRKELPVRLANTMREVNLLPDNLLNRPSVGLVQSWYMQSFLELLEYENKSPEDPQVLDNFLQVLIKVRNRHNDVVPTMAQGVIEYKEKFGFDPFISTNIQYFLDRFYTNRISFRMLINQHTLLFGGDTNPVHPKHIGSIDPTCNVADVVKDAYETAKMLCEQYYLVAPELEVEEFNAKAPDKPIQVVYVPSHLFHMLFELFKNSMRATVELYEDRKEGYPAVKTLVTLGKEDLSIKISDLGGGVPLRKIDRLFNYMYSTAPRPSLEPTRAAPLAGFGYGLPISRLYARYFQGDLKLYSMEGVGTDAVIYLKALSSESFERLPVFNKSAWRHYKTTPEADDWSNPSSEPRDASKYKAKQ
T17 sequence (Q9NQU5 whole entry): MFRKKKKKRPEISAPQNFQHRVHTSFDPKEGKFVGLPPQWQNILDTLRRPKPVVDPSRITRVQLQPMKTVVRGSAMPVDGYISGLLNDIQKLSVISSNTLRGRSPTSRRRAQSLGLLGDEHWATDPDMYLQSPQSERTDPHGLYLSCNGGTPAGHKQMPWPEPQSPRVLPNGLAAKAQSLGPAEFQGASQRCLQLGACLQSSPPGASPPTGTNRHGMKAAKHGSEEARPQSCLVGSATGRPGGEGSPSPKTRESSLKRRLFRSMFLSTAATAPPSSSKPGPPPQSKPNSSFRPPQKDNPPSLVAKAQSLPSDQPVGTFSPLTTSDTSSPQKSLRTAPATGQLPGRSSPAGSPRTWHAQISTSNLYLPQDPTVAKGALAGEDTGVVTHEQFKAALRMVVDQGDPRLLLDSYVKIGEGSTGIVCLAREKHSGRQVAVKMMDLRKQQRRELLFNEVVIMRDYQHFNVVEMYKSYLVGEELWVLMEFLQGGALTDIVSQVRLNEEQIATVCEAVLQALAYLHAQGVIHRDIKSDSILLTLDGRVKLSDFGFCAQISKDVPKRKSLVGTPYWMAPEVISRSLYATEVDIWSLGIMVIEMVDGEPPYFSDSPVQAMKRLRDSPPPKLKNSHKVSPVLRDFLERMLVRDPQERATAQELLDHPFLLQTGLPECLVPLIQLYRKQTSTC
T14 sequence (Q16539 whole entry T106M): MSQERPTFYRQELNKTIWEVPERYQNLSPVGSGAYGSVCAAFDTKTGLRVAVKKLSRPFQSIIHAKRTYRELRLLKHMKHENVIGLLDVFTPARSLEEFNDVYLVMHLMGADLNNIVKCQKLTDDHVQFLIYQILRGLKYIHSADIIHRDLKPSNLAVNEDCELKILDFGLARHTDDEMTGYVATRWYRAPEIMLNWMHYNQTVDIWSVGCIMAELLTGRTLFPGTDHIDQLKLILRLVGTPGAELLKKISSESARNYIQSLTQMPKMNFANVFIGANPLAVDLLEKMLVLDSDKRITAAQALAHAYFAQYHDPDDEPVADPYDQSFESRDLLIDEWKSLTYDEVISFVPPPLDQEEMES

For the compound `CC(C)c1cc(-c2n[nH]c(=O)n2-c2ccc3c(ccn3C)c2)c(O)cc1O` [Ganetespib (STA9090)], the remaining activity at 10 µM in experiment [1] came to 88%; in experiment [2], 81.2%; in experiment [3], 95.8%; in [4], 78%; in experiment [5] it was 88.8%; in [6], 86.2%. Also, the remaining activity at 10 µM turned out to be 84.8% in experiment [7] and 73.6% in experiment [8].
With `CC(C)c1cc(-c2n[nH]c(=O)n2-c2ccc3c(ccn3C)c2)c(O)cc1O` [Ganetespib], the remaining activity at 10 µM in experiment [9] worked out at 97.3%; in experiment [10], 118%; in experiment [11] (setting [20]) it was 7.74%; in experiment [12], 44.5%; in [13] it was 22.3%; in experiment [14], 95.8%. In addition, the remaining activity at 10 µM in [15] was found to be 141%; in experiment [16], 95.4%; in experiment [17], 106%; in experiment [18], 14.2%; in experiment [19], 59.1%. For the same compound, the remaining activity at 1 µM in experiment [11] (compound 1 uM, read-out: % Enzyme Activity (relative to DMSO controls)) was found to be 38.4%.
Take `CCNC(=O)c1noc(-c2cc(C(C)C)c(O)cc2O)c1-c1ccc(CN2CCOCC2)cc1` [Luminespib (AUY-922)]: the “% Enzyme Activity (relative to DMSO controls)” value in experiment [1] amounted to 107.24%; in [2] it was 81.12%; in [3], 84.47%; in experiment [4] it was 100.35%; in experiment [5] it was 92.70%; in [6] it was 100.18%. The “% Enzyme Activity (relative to DMSO controls)” value in [7] was determined as 97.45%; in experiment [8] it was 95.48%. In addition, the remaining activity at 10 µM in experiment [1] was found to be 108%; in [2] it was 83.5%; in experiment [3], 85.3%; in experiment [4], 100%; in experiment [5] it was 92.8%; in experiment [6], 101%. Further, the remaining activity at 10 µM in experiment [7] was determined as 102%; in [8], 95.8%.
As to `CCNC(=O)c1noc(-c2cc(C(C)C)c(O)cc2O)c1-c1ccc(CN2CCOCC2)cc1` [Luminespib], the “% Enzyme Activity (relative to DMSO controls)” value in [9] came to 92.57%; in experiment [10] it was 99.12%; in experiment [11] (compound 10 uM), 36.97%; in [12] it was 56.86%; in [13], 75.85%; in [14], 98.91%. In addition, the “% Enzyme Activity (relative to DMSO controls)” value in experiment [15] is 99.12%; in experiment [16], 93.44%; in [17] it was 95.70%; in experiment [18], 90.08%; in [19] it was 115.01%. The remaining activity at 10 µM in experiment [9] was determined as 93.9%; in experiment [10], 100%; in experiment [11] (setting [20]), 38.1%; in experiment [12], 56.9%; in experiment [13] it was 76.8%; in experiment [14], 99.8%. Moreover, the remaining activity at 10 µM in experiment [15] stood at 101%; in experiment [16] it was 97.5%; in [17], 97.2%; in [18], 90.7%; in experiment [19], 124%.
